From patent US20200216906A1, “METHODS AND COMPOSITIONS RELATING TO THE DIAGNOSIS AND TREATMENT OF CANCER” (PRESIDENT AND FELLOWS OF HARVARD COLLEGE, priority 2015, published 2020)
“Also recorded” adds a separate entry of the source. Like-named read-outs stand apart in the source and are kept apart here. One block for each compound: values may come before it. Starred links: 1 amine or outer side, 2 acyl side, 3 side chain; linkers in the order of their positions; H or OH if unused. Positions of bridges follow the written chain, without caps; N, C: chain ends. Non-standard residues stand in square brackets, D forms with d. Residues, ends and D or L forms follow the SMILES beside them. Chains are numbered I, II in the order given. Actinocin(9to1) = Cc1c2oc3c(C)ccc(C(=O)[*:1])c3nc-2c(C(=O)[*:2])c(N)c1=O; NMeV = CN[C@H](C(=O)O)C(C)C; Sar = CNCC(=O)O

Assays:
Panc02.13 cells = assay: 3D spheroid growth assay, Panc02.13 (GFP/parental) cells; settings: for Efficacy in inhibiting cell growth when the Hippo pathway was not inhibited: Hippo-YAP pathway active; for Inhibition in high density growth conditions: 3D-spheroid screen
[1] = tested on: pancreatic cancer cell lines; assay: Kinetic cell growth assay, panel of pancreatic cancer cell lines; format: cell-based, human; settings: for Dependence of cellular response on cell crowding: seven PDAC cell lines, threshold >100 fold difference in EC50; for Density dependence of efficacy: seven pancreatic cancer cell lines, sparse and dense conditions
Procedure: (§1) The effect of gemcitabine on pancreatic cancer cell growth was studied using a kinetic cell growth assay. Pancreatic cancer cells were plated on 96-well plates (Essen ImageLock, Essen Instruments, MI, US) at varying densities (2-4×10^3 for low density or 15-20×10^3 for high density experiments). Small molecule inhibitors at different doses were added 24 hours after plating and cell confluence was monitored with Incucyte Live-Cell Imaging System and software (Essen Instruments). Confluence was observed every hour for 48-144h or until the control (DMSO only) samples reached 100% confluence.
FIG. 20A illustrates the kinetic cell growth assay to determine the effect of gemcitabine in a panel of pancreatic cancer cell lines. Cells are plated at low crowding conditions (10-25% confluence) and 24 hours later exposed to gemcitabine in a dose-dependent manner. They are imaged every 1-3 hours until control (vehicle) treated cells reach 100% confluence. This assay is not confounded by the fact that the time required for each cell line to reach 100% confluence may be very different (as the cell lines have different doubling times). A dose response effect of gemcitabine on cell growth for 16 pancreatic cancer cell lines is shown in FIGS. 20B, 3, 31A-31C and 28, where the range of previous studies is also shown. […] Similar responses to gemcitabine were found in liver cancer cell lines (Huh7 and FOCUS) and untransformed (HEK293) cell lines (FIGS. 3, 31A-31C).
as §1, with “Kinetic Cell growth assay. The” for “The”, “(2-4X103” for “(2-4×10^3”, “15-20X103” for “15-20×10^3”, “Incucyte™” for “Incucyte”

[2] = tested on: Panc02.13 cells expressing YAPS6A construct; assay: Kinetic cell growth assay, Panc02.13 cells expressing YAPS6A; format: cell-based, human; settings: for EC50: YAPS6A construct
Procedure: (§2) Panc02.13 cells were used to express YAPS6A (or vector controls) under sparse and dense cultures. Expression was confirmed by confocal microscopy (data not shown). Suppression of the Hippo pathway by expression of non-phospho, active form of YAP (YAPS6A) sensitized pancreatic cancer cells to gemcitabine and 5-FU (FIGS. 6 and 7). Apoptosis was measured by immunobloting with cleaved caspases 3/7 or PARP. Blots were also stained with anti-β-actin for loading control. The effect of Hippo pathway suppression on gemcitabine and 5-FU senstitization was maintained in 3D spheroid culture (FIG. 8). The effects of eleven cytotoxic drugs on the growth of Panc02.13 cells expressing vector only or YAPS6A construct grown under low or high densities were determined (Table 1).
as §1
Cell lines (Panc02.13, Panc10.05 or Miapaca2) were transfected with YAPS6A constructs (Addgene) using Lipofectamine™ (Invitrogen, Carlsbad, Calif.) following the manufacturer's instructions and 48 hour post-transfection selected in 5-10 μg/ml Blasticidin (InvivoGen, San Diego, Calif.). The clones screened for YAPS6A expression by Western blot. Stable cell lines were maintained in complete medium and 5 μg/ml Blasticidin.
as §1, with “Kinetic Cell growth assay. The” for “The”, “(2-4X103” for “(2-4×10^3”, “15-20X103” for “15-20×10^3”, “Incucyte™” for “Incucyte”

[3] = tested on: Panc02.13 cells expressing vector only (02.13-WT); assay: Kinetic cell growth assay, Panc02.13 cells expressing vector only; format: cell-based, human
Procedure: as §2, §1
as §1, with “Kinetic Cell growth assay. The” for “The”, “(2-4X103” for “(2-4×10^3”, “15-20X103” for “15-20×10^3”, “Incucyte™” for “Incucyte”

[4] = tested on: Panc02.13 cells expressing the YAPS6A mutant; assay: 3D spheroid growth assay, Panc02.13 cells expressing YAPS6A; format: cell-based, human; settings: YAP activity increased
[5] = Homo sapiens, high density, read-out: High density (EC50, nM) 02.13-YAPS6A
[6] = Homo sapiens, low density, read-out: Low density (EC50, nM) 02.13-YAPS6A
[7] = Homo sapiens, high density, read-out: High density (EC50, nM) 02.13-WT
[8] = Homo sapiens, low density, read-out: Low density (EC50, nM) 02.13-WT
[9] = high density, read-out: High density (EC50, nM) 02.13-YAPS6A
[10] = low density, read-out: Low density (EC50, nM) 02.13-YAPS6A
[11] = high density, read-out: High density (EC50, nM) 02.13-WT
[12] = low density, read-out: Low density (EC50, nM) 02.13-WT

Compound: CC(C)C[C@H](NC(=O)[C@H](Cc1ccccc1)NC(=O)c1cnccn1)B(O)O [bortezomib]
Efficacy in inhibiting cell growth when the Hippo pathway was not inhibited (Panc02.13 cells): effective in preventing cancer cell growth independent of the state of Hippo-YAP signaling pathway activity; also recorded: efficacious in inhibiting cell growth

EC50 [2, 5]: 4820 nM
EC50 [2, 6]: 7 nM
EC50 [3, 7]: 2400 nM
EC50 [3, 8]: 3.5 nM
Compound: CC(=O)O[C@@]12CO[C@@H]1C[C@H](O)[C@@]1(C)C(=O)[C@H](O)C3=C(C)[C@@H](OC(=O)[C@H](O)[C@@H](NC(=O)OC(C)(C)C)c4ccccc4)C[C@@](O)([C@@H](OC(=O)c4ccccc4)[C@H]21)C3(C)C [Docetaxel]
Dependence of cellular response on cell crowding [1]: weak or no correlation with cell density
Density dependence of efficacy [1]: largely density independent

Compound: CCCCC(=O)OCC(=O)[C@]1(O)Cc2c(O)c3c(c(O)c2[C@@H](O[C@H]2C[C@H](NC(=O)C(F)(F)F)[C@H](O)[C@H](C)O2)C1)C(=O)c1c(OC)cccc1C3=O [valrubicin]
Efficacy in inhibiting cell growth when the Hippo pathway was not inhibited (Panc02.13 cells): efficacious in inhibiting cell growth
Efficacy in inhibiting cell growth when the Hippo pathway was inhibited [4]: increased efficacy in inhibiting cell growth

Compound: Cc1ccc(NC(=O)c2ccc(CN3CCN(C)CC3)cc2)cc1Nc1nccc(-c2cccnc2)n1 [imatinib]
Efficacy in inhibiting cell growth when the Hippo pathway was inhibited [4]: increased efficacy in inhibiting cell growth

EC50 [2, 6]: 3 nM
EC50 [3, 7]: 1670 nM
EC50 [3, 8]: 3 nM
Compound: CC(=O)O[C@H]1C(=O)[C@@]2(C)[C@H]([C@H](OC(=O)c3ccccc3)[C@]3(O)C[C@H](OC(=O)[C@H](O)[C@@H](NC(=O)c4ccccc4)c4ccccc4)C(C)=C1C3(C)C)[C@]1(OC(C)=O)CO[C@@H]1C[C@@H]2O [Paclitaxel]
Dependence of cellular response on cell crowding [1]: weak or no correlation with cell density
Density dependence of efficacy [1]: largely density independent

EC50 [2, 5]: 3000 nM
EC50 [3, 7]: > 10000 nM
EC50 [3, 8]: 350 nM
Compound: O=c1[nH]cc(F)c(=O)[nH]1 [5-FU, 5-fluorouracil]
Sensitization by expression of YAPS6A ([2]; suppression of the Hippo pathway, high cell density): sensitized
Efficacy in inhibiting cell growth when the Hippo pathway was inhibited [4]: increased efficacy in inhibiting cell growth

Compound: CO[C@H]1C[C@@H]2CC[C@@H](C)[C@@](O)(O2)C(=O)C(=O)N2CCCC[C@H]2C(=O)O[C@H]([C@H](C)C[C@@H]2CC[C@@H](OCCO)[C@H](OC)C2)CC(=O)[C@H](C)/C=C(\C)[C@@H](O)[C@@H](OC)C(=O)[C@H](C)C[C@H](C)/C=C/C=C/C=C/1C [Everolimus]
Efficacy in inhibiting cell growth when the Hippo pathway was not inhibited (Panc02.13 cells): demonstrated efficacy at higher doses

Compound: CNC(=O)c1ccc(N2C(=S)N(c3ccc(C#N)c(C(F)(F)F)c3)C(=O)C2(C)C)cc1F [enzalutamide]
Efficacy in inhibiting cell growth when the Hippo pathway was not inhibited (Panc02.13 cells): effective in preventing cancer cell growth independent of the state of Hippo-YAP signaling pathway activity; also recorded: efficacious in inhibiting cell growth

Compound: Cc1c2oc3c(C)ccc(C(=O)N[C@@H]4C(=O)N[C@H](C(C)C)C(=O)N5CCC[C@H]5C(=O)N(C)CC(=O)N(C)[C@@H](C(C)C)C(=O)O[C@@H]4C)c3nc-2c(C(=O)N[C@@H]2C(=O)N[C@H](C(C)C)C(=O)N3CCC[C@H]3C(=O)N(C)CC(=O)N(C)[C@@H](C(C)C)C(=O)O[C@@H]2C)c(N)c1=O [dactinomycin] (I: T[dV]P[Sar][NMeV] / II: T[dV]P[Sar][NMeV]; ester I:1-I:C, II:1-II:C; linker I:N-II:N via Actinocin(9to1))
Inhibition in high density growth conditions (Panc02.13 cells): significant inhibition
Efficacy in inhibiting cell growth when the Hippo pathway was not inhibited (Panc02.13 cells): effective in preventing cancer cell growth independent of the state of Hippo-YAP signaling pathway activity; also recorded: efficacious in inhibiting cell growth

Compound: COC(=O)C[C@](O)(CCCC(C)(C)O)C(=O)O[C@@H]1C(OC)=C[C@]23CCCN2CCc2cc4c(cc2[C@H]13)OCO4 [omacetaxine mepesuccinate]
Efficacy in inhibiting cell growth when the Hippo pathway was not inhibited (Panc02.13 cells): effective in preventing cancer cell growth independent of the state of Hippo-YAP signaling pathway activity; also recorded: efficacious in inhibiting cell growth

EC50 [2, 9]: 1650 nM
EC50 [2, 10]: 1700 nM
EC50 [3, 11]: 8500 nM
EC50 [3, 12]: 1070 nM
Compound: CCc1c2c(nc3ccc(OC(=O)N4CCC(N5CCCCC5)CC4)cc13)-c1cc3c(c(=O)n1C2)COC(=O)[C@]3(O)CC [Irrenotecan]
Efficacy in inhibiting cell growth when the Hippo pathway was inhibited [4]: increased efficacy in inhibiting cell growth; also recorded: particularly significant inhibitory activity

Compound: Epothilone
EC50 [2, 9]: 767 nM
EC50 [2, 10]: < 1 nM
EC50 [3, 11]: 20 nM
EC50 [3, 12]: < 1 nM

Compound: S=c1nc[nH]c2nc[nH]c12 [mercaptopurine]
Efficacy in inhibiting cell growth when the Hippo pathway was inhibited [4]: increased efficacy in inhibiting cell growth

Compound: Nc1nc2nc[nH]c2c(=S)[nH]1 [tioguanine]
Efficacy in inhibiting cell growth when the Hippo pathway was inhibited [4]: increased efficacy in inhibiting cell growth

Compound: C/C(=C\c1csc(C)n1)[C@@H]1C[C@@H]2O[C@]2(C)CCC[C@H](C)[C@H](O)[C@@H](C)C(=O)C(C)(C)[C@@H](O)CC(=O)N1 [ixabepilone]
Efficacy in inhibiting cell growth when the Hippo pathway was inhibited [4]: increased efficacy in inhibiting cell growth

Compound: COc1cccc2c1C(=O)c1c(O)c3c(c(O)c1C2=O)C[C@@](O)(C(C)=O)C[C@@H]3O[C@H]1C[C@H](N)[C@H](O)[C@H](C)O1 [daunorubicin]
Efficacy in inhibiting cell growth when the Hippo pathway was not inhibited (Panc02.13 cells): efficacious in inhibiting cell growth
Efficacy in inhibiting cell growth when the Hippo pathway was inhibited [4]: increased efficacy in inhibiting cell growth

Compound: CC(C)C[C@H](NC(=O)[C@H](CCc1ccccc1)NC(=O)CN1CCOCC1)C(=O)N[C@@H](Cc1ccccc1)C(=O)N[C@@H](CC(C)C)C(=O)[C@@]1(C)CO1 [carfilzomib]
Inhibition in high density growth conditions (Panc02.13 cells): significant inhibition
Efficacy in inhibiting cell growth when the Hippo pathway was not inhibited (Panc02.13 cells): effective in preventing cancer cell growth independent of the state of Hippo-YAP signaling pathway activity; also recorded: efficacious in inhibiting cell growth

Compound: Nc1nc(Cl)nc2c1ncn2[C@@H]1O[C@H](CO)[C@@H](O)[C@@H]1F [clofarabine]
Efficacy in inhibiting cell growth when the Hippo pathway was inhibited [4]: increased efficacy in inhibiting cell growth

Compound: Nc1ccn([C@@H]2O[C@H](CO)[C@@H](O)[C@@H]2O)c(=O)n1 [cytarabine]
Efficacy in inhibiting cell growth when the Hippo pathway was inhibited [4]: increased efficacy in inhibiting cell growth

Compound: CC[C@@]1(O)C(=O)OCc2c1cc1n(c2=O)Cc2cc3ccccc3nc2-1 [Camtothecin, Camptothecin]
Dependence of cellular response on cell crowding [1]: weak or no correlation with cell density
Density dependence of efficacy [1]: density-dependent
EC50 [2, 5]: 9 nM
EC50 [2, 6]: 6 nM
Efficacy in inhibiting cell growth when the Hippo pathway was inhibited [4]: increased efficacy in inhibiting cell growth
EC50 [3, 7]: 15 nM
EC50 [3, 8]: 5.2 nM

Compound: O=C1[O][Pt]2([NH][C@@H]3CCCC[C@H]3[NH]2)[O]C1=O [Oxaliplatin]
Dependence of cellular response on cell crowding [1]: weak or no correlation with cell density
Density dependence of efficacy [1]: largely density independent
EC50 [2, 9]: 3180 nM
EC50 [2, 10]: 5890 nM
EC50 [3, 11]: 5200 nM
EC50 [3, 12]: 937 nM

Compound: C1CN1c1nc(N2CC2)nc(N2CC2)n1 [triethylenemelamine]
Efficacy in inhibiting cell growth when the Hippo pathway was not inhibited (Panc02.13 cells): demonstrated efficacy at higher doses

Compound: CO[C@@]12[C@H](COC(N)=O)C3=C(C(=O)C(C)=C(N)C3=O)N1C[C@@H]1N[C@@H]12 [mitomycin]
Efficacy in inhibiting cell growth when the Hippo pathway was inhibited [4]: increased efficacy in inhibiting cell growth
